Experimental data from patent US20120015965A1, “PHARMACEUTICAL COMPOSITION COMPRISING N-[3-CHLORO-4-[(3-FLUOROPHENYL)METHOXY] PHENYL]-6-[5[[[2-(METHYLSULFONYL) ETHYL]AMINO]METHYL]-2-FURYL]-4- QUINAZOLINAMINE” (Ratiopharm GmbH, priority 2008, published 2012).

Assay: Wetting angle (contact angle) of the API by goniometer
Type: physicochemical
Conditions: advancing contact angle, water, 22° C., about 34% RH; accuracy about ±2°; ditosylate monohydrate
Protocol: Alternatively, the above described necessities can be complied with if the active pharmaceutical ingredient used in the preparation of the pharmaceutical composition has a low wetting angle (also: contact angle). The contact angle is a measure of the wettability, that is the lower the contact angle of a given substance, the better it's wettability. Preferably, the wetting angle is below 55°, preferably below 50° and most preferred below 47°. The wetting angle can be measured according to standard methods known in the art, e.g. by means of a goniometer. For this measurement 0.3 g of API is compressed using a KBr press (2000 kg for 2 minutes) to a moulding with a diameter of 1.25 cm. The sample is stored at 100% RH and placed on a glass frit that is kept in contact with water (Millipore quality) one hour prior to the measurement. The wetting angle is then measured on an OCA40, Dataphysics Instruments GmbH, Filderstadt, at 22° C. and about 34% RH at three different sample positions and at different drop sites (3-5 μl of water, Millipore quality) by a static measurement of advancing and receding contact angles via drop contour analysis using ellipse fit (SCA 20, Dataphysics Instruments GmbH, Filderstadt). The wetting angle is defined as the advancing contact angle. The accuracy of measurement is about ±2°.

| Substance | contact angle |
| --- | --- |
| Lapatinib ditosylate monohydrate [API used in examples 1 and 2] | 56 ° |
| Lapatinib ditosylate monohydrate [API used in examples 3 to 5] | 45 ° |
